Experimental data taken from ChEMBL document CHEMBL3860102, “Structure-Cytotoxicity Relationships of Analogues of N14-Desacetoxytubulysin H” (J Med Chem, 2016).

What was measured:
[1] = Cytotoxicity against human DU145 cells incubated for 72 hrs by alamar blue abased assay; assay type: functional; details: DU-145, 72 h
[2] = Cytotoxicity against human HCT116 cells incubated for 72 hrs by alamar blue abased assay; assay type: functional; details: HCT-116, 72 h
[3] = Cytotoxicity against human MDA-MB-231 cells incubated for 72 hrs by alamar blue abased assay; assay type: functional; details: MDA-MB-231, 72 h
[4] = Cytotoxicity against mouse L929 cells; assay type: functional, cell-based
[5] = Cytotoxicity against human SW480 cells; assay type: functional, cell-based
[6] = Cytotoxicity against human KB-3-1 cells; assay type: functional, cell-based
[7] = Cytotoxicity against human T98 cells; assay type: functional, cell-based

Structure (SMILES)	GI50 [1] [nM]	GI50 [2] [nM]	GI50 [3] [nM]	IC50 [4] [nM]	IC50 [5] [nM]	IC50 [6] [nM]	IC50 [7] [nM]
CC[C@H](C)[C@H](NC(=O)[C@@H](Cc1ccccc1)N(C)C)C(=O)N(C)[C@H](C[C@@H](OC(C)=O)c1nc(C(=O)N[C@@H](Cc2ccccc2)C[C@H](C)C(=O)O)cs1)C(C)C	134	103	225				
CC[C@H](C)[C@H](NC(=O)[C@H]1CSCN1C)C(=O)N(C)[C@H](C[C@@H](OC(C)=O)c1nc(C(=O)N[C@@H](Cc2ccccc2)C[C@H](C)C(=O)O)cs1)C(C)C	1120	352	816				
CC[C@H](C)[C@H](NC(=O)[C@H]1CC2CCN1CC2)C(=O)N(C)[C@H](C[C@@H](OC(C)=O)c1nc(C(=O)N[C@@H](Cc2ccccc2)C[C@H](C)C(=O)O)cs1)C(C)C	428	214	196				
CC[C@H](C)[C@H](NC(=O)[C@@H](CC(C)C)N(C)C)C(=O)N(C)[C@H](C[C@@H](OC(C)=O)c1nc(C(=O)N[C@@H](Cc2ccccc2)C[C@H](C)C(=O)O)cs1)C(C)C	17	8.2	19.1				
CC[C@H](C)[C@H](NC(=O)[C@@H](C(C)C)N(C)CC)C(=O)N(C)[C@H](C[C@@H](OC(C)=O)c1nc(C(=O)N[C@@H](Cc2ccccc2)C[C@H](C)C(=O)O)cs1)C(C)C	2940	1640	3020				
CC[C@H](C)[C@H](NC(=O)[C@H]1CCCCN1C)C(=O)N(C)[C@H](C[C@@H](OC(C)=O)c1nc(C(=O)N[C@@H](Cc2ccccc2)C[C@H](C)C(=O)NN)cs1)C(C)C	6.63	6.09	5.24				
CC[C@H](C)[C@H](NC(=O)[C@H]1CCCCN1)C(=O)N(C)[C@H](C[C@@H](OC(C)=O)c1nc(C(=O)N[C@@H](Cc2ccccc2)C[C@H](C)C(=O)O)cs1)C(C)C	46.2	21.3	19.6				
CC[C@H](C)[C@H](NC(=O)[C@H]1CCCCN1C)C(=O)N(C)[C@H](C[C@@H](OC(C)=O)c1nc(C(=O)N[C@@H](Cc2ccccc2)C[C@H](C)C(=O)O)cs1)C(C)C	0.71	0.62	1.14	0.34	0.02	0.19	1.6
CC[C@H](C)[C@H](NC(=O)[C@H]1CSCCN1C)C(=O)N(C)[C@H](C[C@@H](OC(C)=O)c1nc(C(=O)N[C@@H](Cc2ccccc2)C[C@H](C)C(=O)O)cs1)C(C)C	166	69.3	226				
CC[C@H](C)[C@H](NC(=O)[C@H]1CC(C)(C)CCN1C)C(=O)N(C)[C@H](C[C@@H](OC(C)=O)c1nc(C(=O)N[C@@H](Cc2ccccc2)C[C@H](C)C(=O)O)cs1)C(C)C	1.3	1.8	3.9				
CC[C@H](C)[C@H](NC(=O)[C@H]1CCc2ccccc2N1C)C(=O)N(C)[C@H](C[C@@H](OC(C)=O)c1nc(C(=O)N[C@@H](Cc2ccccc2)C[C@H](C)C(=O)O)cs1)C(C)C	> 3330	> 3330	> 3330				
CC[C@H](C)[C@H](NC(=O)[C@H]1C[C@H](C)CCN1C)C(=O)N(C)[C@H](C[C@@H](OC(C)=O)c1nc(C(=O)N[C@@H](Cc2ccccc2)C[C@H](C)C(=O)O)cs1)C(C)C	0.9	0.5	3.4				
CC[C@H](C)[C@H](NC(=O)[C@@H](C(C)C)N(C)C)C(=O)N(C)[C@H](C[C@@H](OC(C)=O)c1nc(C(=O)N[C@@H](Cc2ccccc2)C[C@H](C)C(=O)O)cs1)C(C)C	9.6	4.4	10.7				
CC[C@H](C)[C@H](NC(=O)C1(C)CCCCN1C)C(=O)N(C)[C@H](C[C@@H](OC(C)=O)c1nc(C(=O)N[C@@H](Cc2ccccc2)C[C@H](C)C(=O)O)cs1)C(C)C (some centres undefined)	1.2						
CC[C@H](C)[C@H](NC(=O)[C@@H](C)N(C)C)C(=O)N(C)[C@H](C[C@@H](OC(C)=O)c1nc(C(=O)N[C@@H](Cc2ccccc2)C[C@H](C)C(=O)O)cs1)C(C)C	4.5	2.5	3.9				
CC[C@H](C)[C@H](NC(=O)[C@H]1CCCCN1CCN)C(=O)N(C)[C@H](C[C@@H](OC(C)=O)c1nc(C(=O)N[C@@H](Cc2ccccc2)C[C@H](C)C(=O)O)cs1)C(C)C	176	174	243				
CC[C@H](C)[C@H](NC(=O)[C@H]1C[C@@H](C)CN1C)C(=O)N(C)[C@H](C[C@@H](OC(C)=O)c1nc(C(=O)N[C@@H](Cc2ccccc2)C[C@H](C)C(=O)O)cs1)C(C)C	1.7	0.8	4.2				
CC[C@H](C)[C@H](NC(=O)[C@H]1COCCN1C)C(=O)N(C)[C@H](C[C@@H](OC(C)=O)c1nc(C(=O)N[C@@H](Cc2ccccc2)C[C@H](C)C(=O)O)cs1)C(C)C	808	408	998				
CCCN(C)[C@@H](C(=O)N[C@H](C(=O)N(C)[C@H](C[C@@H](OC(C)=O)c1nc(C(=O)N[C@@H](Cc2ccccc2)C[C@H](C)C(=O)O)cs1)C(C)C)[C@@H](C)CC)C(C)C	> 3330	> 3330	> 3330				
CC[C@H](C)[C@H](NC(=O)[C@@H]1CC(C)(C)CCN1C)C(=O)N(C)[C@H](C[C@@H](OC(C)=O)c1nc(C(=O)N[C@@H](Cc2ccccc2)C[C@H](C)C(=O)O)cs1)C(C)C	50.6	88	118				
CC[C@H](C)[C@H](NC(=O)[C@H]1CCCCN1C(C)=O)C(=O)N(C)[C@H](C[C@@H](OC(C)=O)c1nc(C(=O)N[C@@H](Cc2ccccc2)C[C@H](C)C(=O)O)cs1)C(C)C	> 3330	798	> 3330				
CC[C@H](C)[C@H](NC(=O)[C@H]1CCSCN1C)C(=O)N(C)[C@H](C[C@@H](OC(C)=O)c1nc(C(=O)N[C@@H](Cc2ccccc2)C[C@H](C)C(=O)O)cs1)C(C)C	136	64.2	125				
CC[C@H](C)[C@H](NC(=O)[C@H]1CCCCN1)C(=O)N(C)[C@H](C[C@@H](OC(C)=O)c1nc(C(=O)N[C@@H](Cc2ccccc2)C[C@H](C)C(=O)OC)cs1)C(C)C	11.5	3.68	9.39				
CC[C@H](C)[C@H](NC(=O)[C@H]1CCCCN1C)C(=O)N(C)[C@H](C[C@@H](OC(C)=O)c1nc(C(=O)N[C@@H](Cc2ccccc2)C[C@H](C)C(N)=O)cs1)C(C)C	0.948	0.737	1.06				
CC[C@H](C)[C@H](NC(=O)[C@@H](c1ccccc1)N(C)C)C(=O)N(C)[C@H](C[C@@H](OC(C)=O)c1nc(C(=O)N[C@@H](Cc2ccccc2)C[C@H](C)C(=O)O)cs1)C(C)C	82.3	52.5	111				
CC[C@H](C)[C@H](NC(=O)[C@H]1COCCN1)C(=O)N(C)[C@H](C[C@@H](OC(C)=O)c1nc(C(=O)N[C@@H](Cc2ccccc2)C[C@H](C)C(=O)O)cs1)C(C)C	2280	1380	> 3330				
CC[C@H](C)[C@H](NC(=O)[C@H]1CCCN1C)C(=O)N(C)[C@H](C[C@@H](OC(C)=O)c1nc(C(=O)N[C@@H](Cc2ccccc2)C[C@H](C)C(=O)O)cs1)C(C)C	1	0.6	3.3				
CC[C@H](C)[C@H](NC(=O)[C@H]1CCCCN1C)C(=O)N(C)[C@H](C[C@@H](O)c1nc(C(=O)N[C@@H](Cc2ccccc2)C[C@H](C)C(=O)O)cs1)C(C)C	363	110	169				
CC[C@H](C)[C@H](NC(=O)[C@H]1CCCCN1C)C(=O)N(C)[C@H](C[C@@H](OC(C)=O)c1nc(C(=O)N[C@H](CN)Cc2ccccc2)cs1)C(C)C	2.7	5.9	9				
